Experimental data taken from patent US8026359B2, “Fungicidal heterocyclic amines” (E.I. du Pont de Nemours and Company, priority 2007, dated 2011).
Marks after values point to notes of the source that are not given here.

Key:
Type in all cases: in vivo
Magnaporthe grisea = settings: 100 ppm (100 g/ha, 1000 L/ha), rice seedlings, inoculated the following day; 100 = 100% disease control, 0 = no control relative to controls
Plasmopara viticola = test: Test R: grape downy mildew, preventive spray on grape seedlings; settings: 100 ppm (100 g/ha, 1000 L/ha), inoculated the following day, 100 = 100% disease control, 0 = no control relative to controls
Description: General protocol for preparing test suspensions for Tests A-R: The test compounds were first dissolved in acetone in an amount equal to 3% of the final volume and then suspended at the desired concentration (in ppm) in acetone and purified water (50/50 mix) containing 250 ppm of the surfactant Trem® 014 (polyhydric alcohol esters). The resulting test suspensions were then used in tests A-R. In Tests A-M, compounds were sprayed as a 200 ppm test suspension (equivalent to a rate of 500 g/ha) or as a 40 ppm test suspension to the point of runoff on the test plants. In Tests N-R, compounds were sprayed as a 100 g/ha test suspension (equivalent to a rate of 100 ppm) on the test plants at an application volume of 1000 L/ha. The test suspension was sprayed on grape seedlings. The following day the seedlings were inoculated with a spore suspension of Plasmopara viticola (the causal agent of grape downy mildew) and incubated in a saturated atmosphere at 20° C. for 24 h, then moved to a growth chamber at 20° C. for 7 days, after which time the test units were placed back into a saturated atmosphere at 20° C. for 24 h. Upon removal, disease ratings were made.

Botrytis cinerea = test: Test F: tomato Botrytis, preventive spray on tomato seedlings; settings: 200 ppm, 100 = 100% disease control, 0 = no control relative to controls
In short: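 Preventive run-off spray onto tomato seedlings at 200 ppm (equivalent to 500 g/ha) or 40 ppm. Suspensions: compound predissolved in acetone at 3% of final volume, then taken up in acetone/purified water 50/50 containing 250 ppm Trem® 014 surfactant.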

Septoria tritici = test: Test D: wheat leaf blotch, preventive spray on wheat seedlings; settings: 200 ppm, 100 = 100% disease control, 0 = no control relative to controls
In short: (§1)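 Preventive foliar spray to run-off on seedlings at 200 ppm (≈500 g/ha) or 40 ppm. Test suspension: acetone at 3% of final volume, then acetone/purified water 50/50 containing 250 ppm Trem® 014.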

Alternaria solani = test: Test H: tomato early blight, preventive spray on seedlings
Description: (§2) General protocol for preparing test suspensions for Tests A-R: The test compounds were first dissolved in acetone in an amount equal to 3% of the final volume and then suspended at the desired concentration (in ppm) in acetone and purified water (50/50 mix) containing 250 ppm of the surfactant Trem® 014 (polyhydric alcohol esters). The resulting test suspensions were then used in tests A-R. In Tests A-M, compounds were sprayed as a 200 ppm test suspension (equivalent to a rate of 500 g/ha) or as a 40 ppm test suspension to the point of runoff on the test plants. In Tests N-R, compounds were sprayed as a 100 g/ha test suspension (equivalent to a rate of 100 ppm) on the test plants at an application volume of 1000 L/ha. The test suspension was sprayed to the point of run-off on wheat seedlings.

Uncinula necator = test: Test N: grape powdery mildew, preventive spray on grape seedlings; settings: 100 ppm (100 g/ha, 1000 L/ha), inoculated the following day, 100 = 100% disease control, 0 = no control relative to controls
Description: as §2, with “sprayed” for “sprayed to the point of run-off”, “grape” for “wheat”

Septoria nodorum = test: Test C: wheat glume blotch, preventive spray on wheat seedlings; settings: 200 ppm, 100 = 100% disease control, 0 = no control relative to controls
In short: as §1

[1] = tested on: Puccinia recondita f. sp. tritici; test: Test B: wheat leaf rust, preventive spray on wheat seedlings; settings: 200 ppm, 100 = 100% disease control, 0 = no control relative to controls
In short: as §1

Fusarium graminearum = test: whole plant or invertebrate; settings: for Test E disease control rating: 200 ppm, 100 = 100% disease control, 0 = no control relative to controls
Venturia inaequalis = test: Test O: apple scab, preventive spray on apple seedlings; settings: 100 ppm (100 g/ha, 1000 L/ha), inoculated the following day, 100 = 100% disease control, 0 = no control relative to controls
Description: as §2, with “sprayed” for “sprayed to the point of run-off”, “apple” for “wheat”

Rhizoctonia oryzae = test: Test P: rice sheath blight, preventive spray on rice seedlings; settings: 100 ppm (100 g/ha, 1000 L/ha), inoculated the following day, 100 = 100% disease control, 0 = no control relative to controls
Description: as §2, with “sprayed” for “sprayed to the point of run-off”, “rice” for “wheat”

[2] = tested on: Erysiphe graminis f. sp. tritici; test: Test A: wheat powdery mildew, preventive spray on wheat seedlings
In short: as §1

[3] = tested on: Colletotrichum orbiculare; test: Test I: cucumber Colletotrichum anthracnose, preventive spray on cucumber seedlings; settings: 100 = 100% disease control, 0 = no control relative to controls; for Test I disease control rating: 200 ppm
In short: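 Preventive foliar spray to run-off on cucumber seedlings, at 200 ppm (stated as equal to 500 g/ha) or 40 ppm. Test suspensions were made in acetone/water 50/50 containing 250 ppm Trem 014, after first dissolving compound in acetone at 3% of final volume.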

[4] = 200 ppm, 100 = 100% disease control, 0 = no control relative to controls

| Structure (SMILES) | Test Q disease control rating (Magnaporthe grisea) [%] | Test R disease control rating (Plasmopara viticola) [%] | Test N disease control rating (Uncinula necator) [%] | Test O disease control rating (Venturia inaequalis) [%] | Test P disease control rating (Rhizoctonia oryzae) [%] | Test F disease control rating (Botrytis cinerea) [%] | Test D disease control rating (Septoria tritici) [%] | Test H disease control rating (Alternaria solani; [4]) [%] | Test C disease control rating (Septoria nodorum) [%] | Test B disease control rating [1] [%] | Test E disease control rating (Fusarium graminearum) [%] | Test I disease control rating [3] [%] | also measured |
| --- | --- | --- | --- | --- | --- | --- | --- | --- | --- | --- | --- | --- | --- |
| COCC(C)Nc1nccc(-c2ncnc(Nc3cccc(F)c3)n2)n1 (centres unmarked) [Compound 2, N-(3-fluorophenyl)-4-[2-[(2-methoxy-1-methylethyl)amino]-4-pyrimidinyl]-1,3,5-triazin-2-amine] | 93 | 60 | 89 | 95 | 100 | – | – | – | – | – | – | – | pest or weed control at 200 ppm (Botrytis cinerea; Botrytis cinerea, 120 h, read-out: Test F disease control rating): 93%; pest or weed control at 200 ppm (Septoria tritici; Zymoseptoria tritici, 504 h, read-out: Test D disease control rating): 71%; pest or weed control at 200 ppm (Alternaria solani; Alternaria solani, 168 h, 200 ppm, 100 = 100% disease control, 0 = no control relative to controls, read-out: Test H disease control rating): 97%; pest or weed control at 200 ppm (Septoria nodorum; Parastagonospora nodorum, 216 h, read-out: Test C disease control rating): 99%; pest or weed control at 200 ppm ([1]; Puccinia recondita, 192 h, read-out: Test B disease control rating): 99%; pest or weed control at 200 ppm (Fusarium graminearum; Fusarium graminearum, in Triticum aestivum, 192 h, read-out: Test E disease control rating): 95%; pest or weed control at 200 ppm ([2]; Blumeria graminis, 192 h, 200 ppm, 100 = 100% disease control, 0 = no control relative to controls, read-out: Test A disease control rating): 94%; pest or weed control at 200 ppm ([3]; Colletotrichum orbiculare, 144 h, read-out: Test I disease control rating): 99% |
| COC[C@H](C)Nc1nccc(-c2ncnc(Nc3cccc(Br)c3)n2)n1 [Compound 11] | – | 27 | 85 | 92 | – | 96 | 0 | 98 | 100 | 96 | 99 | – | – |
| COC[C@H](C)Nc1nccc(-c2ncnc(Nc3cccc(Cl)c3)n2)n1 [Compound 16] | – | 40 | 99 | 76 | – | 96 | 71 | 98 | 99 | 99 | 99 | 97 | – |
| COC[C@H](C)Nc1nccc(-c2ncnc(Nc3cccc(C#N)c3)n2)n1 [Compound 18] | 100 | 86 | 99 | 83 | 100 | 95 | 0 | – | 100 | 100 | 85 | 99 | Test H disease control rating (Alternaria solani; 40 ppm (marked *)): 89* % |
| COC[C@H](C)Nc1nccc(-c2ncnc(Nc3cccc(C)c3)n2)n1 [Compound 19] | – | 73 | 95 | 33 | – | 99 | 87 | 93 | 100 | 97 | 97 | 99 | – |
| COC[C@H](C)Nc1nccc(-c2ncnc(Nc3ccc(F)c(Cl)c3)n2)n1 [Compound 23] | – | 30 | 61 | 99 | – | 90 | 13 | – | 100 | 98 | 98 | 99 | Test H disease control rating (Alternaria solani; 40 ppm (marked *)): 100* %; Test A disease control rating ([2]; 40 ppm (marked *)): 0* % |
| COC[C@H](C)Nc1nccc(-c2ncnc(Nc3ccc(C)c(F)c3)n2)n1 [Compound 25] | – | 86 | 99 | 59 | – | 63 | 16 | 99 | 100 | 99 | 99 | – | – |
| COC[C@H](C)Nc1nccc(-c2ncnc(Nc3ccc(C)c([N+](=O)[O-])c3)n2)n1 [Compound 26] | – | 96 | 69 | 96 | – | 17 | 2 | 91 | 100 | 98 | 98 | – | – |
| COC[C@H](C)Nc1nccc(-c2ccnc(Nc3cccc(F)c3)c2)n1 [Compound 56] | 98 | 97 | 64 | 75 | 100 | 99 | 82 | – | 99 | 99 | 90 | 90 | Test A disease control rating [2, 4]: 84% |
